1 compound from patent US10849875B2, “Cancer specific lipid targeted peptidomimetics” (University of Houston System, priority 2015, dated 2020) can be followed below.

One data set relates to H460 xenografts. Briefly: Inhibition of growth of H460 lung cancer xenograft. To be noted: for tumor size reduction: H460 in nude mice, daily dose of 0.5 mg/mL. The format is in vivo, mice. As to the method:
Whether PPS1D1 would inhibit tumor growth in a murine model was examined. H460 cells were implanted in nude mice. Tumors were allowed grow until it reach […]. These xenografts were then treated with a daily dose of […] in four different groups that consist of PPS1D1 alone, docetaxel alone, PPS1D1 and docetaxel together or with the control peptoid (PC462D1) alone. Docetaxel is a standard chemotherapeutic treatment for non-small cell carcinoma. The activity of PPSD1 and its ability to work as a combination treatment were examined. […] This effect was extremely potent and the tumor growth was completely controlled. […] It has been reported that chemotherapy and radiation therapy increase the PS flipping in tumor microenvironment. Therefore, Docetaxel might have helped improve binding of PPS1D1 on cancer cell surface that is now displaying an increased amount of PS to be targeted. After the standard chemotherapy and radiation therapy, the target PS is highly abundant for the drug to recognize and attack.
The effect of PPS1D1 on the growth of H460 xenografts implanted in NOD/SCID immunodeficient mice was examined. Immunodeficient animals were chosen to facilitate the growth of human tumor xenografts. […] Therapy with a control peptoid (PC462D1, 0.25 mg/mouse, 3×/week ip), PPS1D1 (0.25 mg/mouse, 3×/week ip), docetaxel (0.5 mg/kg, 2×/week, ip) or the combination of PPS1D1+docetaxel was initiated when tumors were ˜100 mm3 in volume. […] Tumor tissue was harvested after 4 weeks of therapy and assessed for cell proliferation and apoptosis by immunohistochemistry. […] It is clear from studies with bavituximab that standard chemotherapy (e.g., taxanes) increases the exposure of PS resulting in elevated binding of the PS targeting agent. A similar mechanism can underlie the enhanced activity of docetaxel and PPS1D1.
All animals were housed in a pathogen-free facility with continuous access to food and water. Mice were purchased from the core breeding facility at UT Southwestern. Six to eight-week-old female NOD/SCID mice were injected with 2.5×10^6 H460 cells subcutaneously. Tumor volume was followed by twice weekly measurements with Vernier calipers. Animals were randomized and treatment was initiated with mean tumor volume of each group was 100 mm3. Four different groups used were: (I) control PC462D1, (II) PPS1D1, (III) docetaxel, and (IV) combination of PPS1D1+docetaxel. Mice (n=8/group) were treated with PPS1D1 or PC462D1 in saline by ip injection at a dose of 0.25 mg/mouse, 3 times per week on a M-W-F schedule. Docetaxel from the UT Southwestern Clinical pharmacy was diluted in saline and delivered 2×/week ip at 5 mg/kg. Animals were sacrificed after 4 weeks of therapy. Tumor tissue was snap frozen, sectioned and stained with antibodies specific for phospho-Histone H3 (Millipore, #06-570) and cleaved caspase 3 (Cell Signaling, #9664). Reactivity was developed with appropriate fluorescently conjugated secondary antibodies (Jackson ImmunoResearch) and mounted with Prolong Gold with DAPI (Invitrogen), coverslipped and evaluated by fluorescence microscopy.

The test system of the next data set is HCC4017 cells. In words: MTS cell viability assay. The format is cell-based, human. The method, then:
After confirming the binding and specificity of the PPS1 on HCC4017 lung cancer cells, whether this compound has any biological effects on HCC4017 lung cancer cells was assayed. The gold standard cell viability (MTS) assay was used. […] On one of the repetitive experiments of this assay, Cystinylated-PPS1 compound was included (FIG. 6A). This was the intermediate compound used to attach the FITC-malemide for binding assays described previously. […] The only difference between this Cystinylated-PPS1 and the original PPS1 compound was just a single cysteine amino acid at the C-terminal. It was difficult to rationalize having a single amino acid residue at the terminus of the sequence causing a large difference of activity, other possibilities were considered. Cysteine has sulfur (—SH) group on the side chain and two of these can easily form disulfide bonds. […]
A homo-dimeric version of PPS1 was synthesized. […] The resulting dimeric version of the PPS1 compound, PPS1D1 (FIG. 6C), and the analogous dimeric versions of scrambled PC2, PC2D1 (FIG. 6E), and control compound C462, PC462D1 (FIG. 82), were then evaluated for activity. […] As described above, HCC4017 cells and HBEC30kt and HBEC3kt cells were grown in 96 well plates on day 1, treated serial dilutions of PPS1, PPS1D1, C462 and C462D1 on day 2, and viable cell count was measured using MTS reagent on day 3. […]
On the technique in general: Tetrazolium assays rely on reduction of a dye to a coloured formazan, in cell work by metabolically active cells.

“Also recorded” adds a separate entry of the source. Positions of bridges follow the written chain, without caps; N, C: chain ends. Non-standard residues stand in square brackets, D forms with d. Residues, ends and D or L forms follow the SMILES beside them. Chains are numbered I, II in the order given. Gly(N-piperonyl) = O=C(O)CNCc1ccc2c(c1)OCO2; N(4-MeOBn)Gly = COc1ccc(CNCC(=O)O)cc1; Nrpe = C[C@@H](NCC(=O)O)c1ccccc1; Nlys = NCCCCNCC(=O)O

Usually IC50 stands for the concentration that inhibits the measured activity by half. A higher IC50 goes with a need for much substance. With `COc1ccc(CN(CC(=O)N(CCCCN)CC(=O)N[C@@H](CCCCN)C(=O)N[C@H](CCCCN)C(=O)N[C@@H](CCSC)C(=O)NCCCC[C@H](NC(=O)[C@H](CCSC)NC(=O)[C@@H](CCCCN)NC(=O)[C@H](CCCCN)NC(=O)CN(CCCCN)C(=O)CN(Cc2ccc(OC)cc2)C(=O)CN(C(=O)CN(Cc2ccc3c(c2)OCO3)C(=O)CN[C@H](C)c2ccccc2)[C@H](C)c2ccccc2)C(N)=O)C(=O)CN(C(=O)CN(Cc2ccc3c(c2)OCO3)C(=O)CN[C@H](C)c2ccccc2)[C@H](C)c2ccccc2)cc1` [PPS1D1] (I: H-[Nrpe][Gly(N-piperonyl)][Nrpe][N(4-MeOBn)Gly][Nlys]K[dK]MK-NH2 / II: H-[Nrpe][Gly(N-piperonyl)][Nrpe][N(4-MeOBn)Gly][Nlys]K[dK]M; amide I:9-II:C; N-terminus assumed), the “tumor growth (tumor volume vs days post therapy initiation)” value in the data set on H460 xenografts (H460 in NOD/SCID mice, peptoids 0.25 mg/mouse 3x/week ip, docetaxel 0.5 mg/kg 2x/week ip) is on record as “slowed tumor growth”. The tumor size reduction result with H460 xenografts is “strong tumor burden effect; also recorded: equally effective in reducing the size of the tumors”; in the data set on H460 xenografts (listed as PPSD1), “slightly better effect”. In the data set on H460 xenografts (at the doses used), the animal weight loss result is listed as “did not induce animal weight loss”. Also, in the data set with HCC4017 cells (HCC4017, tested at 6, 12 and 24 hours post treatment), the “activity at different times post treatment” value is given as “somewhat similar”. The compound also displayed an IC50 with HCC4017 cells (MTS, HCC4017) of roughly 10 µM.
